{"source": "patent US20210292710A1", "about": "“METHOD FOR ENHANCING IMMUNE FUNCTION OF IMMUNE CELL AND IMMUNE CELL LINE PRODUCED USING THE SAME” (INDUSTRY-ACADEMIC COOPERATION FOUNDATION, YONSEI UNIVERSITY, priority 2020, published 2021)", "key": {"GLUT1": {"test_system": "GLUT1", "assay": "GLUT1 expression in T cells due to PI3K inhibitor and mTORC1 inhibitor treatment", "assay_type": "cell-based", "conditions": "RAD001 as mTORC1 inhibitor, p<0.05", "description": "Furthermore, referring to FIG. 8, AKT and GLUT1 expression levels in T cells due to PI3K inhibitor and mTORC1 inhibitor treatment are shown. In this connection, RAD001 is used as a mTORC1 inhibitor. Furthermore, referring to (b) of FIG. 8, the GLUT1 expression level in T cells due to PI3K inhibitor and mTORC1 inhibitor treatment is shown."}, "[1]": {"test_system": "lung-cancer cell line LLC2", "assay": "Percentage of immune cells relative to lung-cancer cell line LLC2", "assay_type": "in vivo", "description": "Referring to FIG. 9B, the percentage of immune cells relative to the lung-cancer cell line LLC2 due to PI3K inhibitor treatment is shown. Referring first to FIG. 9B (a), the percentage of CD3+ CD8+ T cells relative to LLC2 as a lung-cancer cell line due to PI3K inhibitor treatment is shown. In this connection, CD3+ CD8+ T cells may refer to cytotoxic T cells (Tc cells) capable of destroying damaged cells, infected cells, and tumor cells. Next, referring to (b) of FIG. 9B, the percentage of CD3+ CD4+ CD25+ Foxp3 T cells relative to LLC2 as a lung-cancer cell line due to the PI3K inhibitor treatment is shown. In this connection, the CD3+ CD4+ CD25+ Foxp3 T cells refer to regulatory T cells (Treg) that may maintain immuno-tolerance and autoimmunity, that is, may inhibit the immune response of other cells. Next, referring to (c) of FIG. 9B, the percentage of CD3+ TIL cells relative to LLC2 as a lung-cancer cell line due to the PI3K inhibitor treatment is shown. In this connection, CD3+ TIL cell may refer to a tumor infiltrating lymphocyte (TIL) that infiltrates a tumor cell cluster, thereby enhancing the T cell's tumor killing ability, that is, an anti-cancer effect of the T cell. Next, referring to (d) of FIG. 9B, the percentage of MDSC cells relative to the lung-cancer cell line LLC2 due to the PI3K inhibitor treatment is shown. In this connection, the MDSC cell may refer to immature myeloid cells which inhibit the immune response of immune cells such as T cells and NK cells, and induce the generation of regulatory T cells (Treg), thereby to promote the growth of cancer cells."}}}
{"smiles": "Nc1cc(C(F)(F)F)c(-c2cc(N3CCOCC3)nc(N3CCOCC3)n2)cn1", "note": "[BKM 120, buparlisib]", "values": [{"measurement": "GLUT1 expression in iPI3K+/imTOR− group relative to iPI3K−/imTOR−, iPI3K−/imTOR+ and iPI3K+/imTOR+ groups", "setting": "GLUT1", "result": "6 to 7", "unit": "times"}, {"measurement": "average percentage of CD3+ CD4+ CD25+ Foxp3 T cells (Treg)", "setting": "[1]; 35 mpk", "result": 17, "unit": "%"}, {"measurement": "average percentage of CD3+ CD8+ T cells", "setting": "[1]; 35 mpk", "result": 38, "unit": "%"}, {"measurement": "average percentage of MDSC cells", "setting": "[1]; 35 mpk", "result": 32, "unit": "%"}, {"measurement": "distribution of percentage of CD3+ CD4+ CD25+ Foxp3 T cells (Treg)", "setting": "[1]; 35 mpk", "result": "16 to 19", "unit": "%"}, {"measurement": "distribution of percentages of CD3+ CD8+ T cells", "setting": "[1]; 35 mpk", "result": "35 to 42", "unit": "%"}, {"measurement": "distribution of the percentage of MDSC cells", "setting": "[1]; 35 mpk", "result": "31 to 33", "unit": "%"}, {"measurement": "percentage of CD3+ TIL cells on average", "setting": "[1]; 35 mpk", "result": 0.4, "unit": "%"}, {"measurement": "average percentage of CD3+ CD4+ CD25+ Foxp3 T cells (Treg)", "setting": "[1]; 50 mpk", "result": 15, "unit": "%"}, {"measurement": "average percentage of CD3+ CD8+ T cells", "setting": "[1]; 50 mpk", "result": 42, "unit": "%"}, {"measurement": "average percentage of MDSC cells", "setting": "[1]; 50 mpk", "result": 24, "unit": "%"}, {"measurement": "distribution of percentage of CD3+ CD4+ CD25+ Foxp3 T cells (Treg)", "setting": "[1]; 50 mpk", "result": "13 to 17", "unit": "%"}, {"measurement": "distribution of percentages of CD3+ CD8+ T cells", "setting": "[1]; 50 mpk", "result": "37 to 50", "unit": "%"}, {"measurement": "distribution of the percentage of MDSC cells", "setting": "[1]; 50 mpk", "result": "22 to 26", "unit": "%"}, {"measurement": "percentage of CD3+ TIL cells on average", "setting": "[1]; 50 mpk", "result": 0.9, "unit": "%"}]}
